molecular target: Cyclin-dependent kinase 9 (Homo sapiens, UniProt P50750); test: LANCE ULight TR-FRET Kinase Assay : CDK9 enzyme activities were measured using LANCE ULight TR-FRET kinase assay reagents (PerkinElmer, Waltham, Mass.). Compounds were diluted in 100% DMSO then diluted with 1:10 in serine/threonine kinase assay buffer containing 20 mM HEPES, 10 mM MgCl2, 100 mM Na3VO4, and 0.0075% Triton X-100. Equal volume of the compound dilutions was added to a final reaction mixture containing LANCE detection buffer (PerkinElmer CR97-100), 100 nM ULight MBP (PerkinElmer TRF0109M), 1000 μM ATP, and CDK9/Cyclin T1 (Carna Biosciences 04-110). The kinase reaction was carried out for 1 hour before addition of stopping buffer to a final of 20 mM EDTA and 0.5 nM of LANCE Ultra Europium anti-phospho-MBP antibody (PerkinElmer TRF0201M) in LANCE detection buffer. The reaction was incubated for 1 hour and the signal was read in Envision in TR-FRET mode (excitation at 320 nm and emission at 615/665 nm).
Sequence (P50750 whole entry): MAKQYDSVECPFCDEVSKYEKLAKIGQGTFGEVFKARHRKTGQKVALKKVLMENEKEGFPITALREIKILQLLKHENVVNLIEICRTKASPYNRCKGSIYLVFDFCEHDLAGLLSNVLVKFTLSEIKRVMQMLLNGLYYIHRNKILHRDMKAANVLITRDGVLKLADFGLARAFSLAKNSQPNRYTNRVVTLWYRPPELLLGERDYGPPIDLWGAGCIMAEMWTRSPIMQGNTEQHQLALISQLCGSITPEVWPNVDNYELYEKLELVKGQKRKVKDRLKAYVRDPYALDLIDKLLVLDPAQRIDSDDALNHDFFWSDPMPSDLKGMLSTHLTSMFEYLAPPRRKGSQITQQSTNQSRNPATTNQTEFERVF

Row | IC50 [nM] | Compound
1 | 230 | CN1Cc2c(C3=CCN(C(=O)OC(C)(C)C)CC3)[nH]c3nccc(c23)-c2cc(F)ccc21
2 | 30 | CNC(=O)N1CC=C(c2[nH]c3nccc4c3c2CN(C)c2ccc(F)cc2-4)CC1
3 | 38 | CN1Cc2c(C3=CCN(S(C)(=O)=O)CC3)[nH]c3ncc(F)c(c23)-c2cc(F)ccc21

Row | Compound | IC50 [nM]
4 | CN(CCO)C(=O)CN1CC=C(c2[nH]c3ncc(F)c4c3c2CN(C)c2ccc(F)cc2-4)CC1 | 100

Reference: ChEMBL document CHEMBL3886673, “Tetracyclic CDK9 kinase inhibitors” (2016)
